Data taken from patent US20160145267A1, “HETEROARYL SUBSTITUTED PYRAZOLES” (BAYER PHARMA AKTIENGESELLSCHAFT, priority 2013, published 2016).
Like-named read-outs stand apart in the source and are kept apart here.

What was measured:
[1] = target: T1, catalytic domain of human Bub1 (amino acids 704-1085) (Homo sapiens, UniProt O43683); assay: Bub1 kinase assay (TR-FRET); assay type: biochemical
T1 construct: catalytic domain of human Bub1 (amino acids 704-1085); His6 (N); made in house; host or cells: Hi5 insect cells
Description: To this end, 100-fold concentrated compound solutions (in DMSO) were previously prepared by serial dilution (1:3.4) of 2 mM stocks in a clear low volume 384-well source microtiter plate (Greiner Bio-One, Frickenhausen, Germany), from which 50 nL of compounds were transferred into a black low volume test microtiter plate from the same supplier. […] The resulting mixture (5 μL final volume) was incubated at 22° C. during 60 min., and the reaction was stopped by the addition of 5 μL of an aqueous EDTA-solution (50 mM EDTA, in 100 mM HEPES pH 7.5 and 0.2% (w/v) bovine serum albumin) which also contained the TR-FRET detection reagents (0.2 μM streptavidin-XL665 [Cisbio Bioassays, Codolet, France] and 1 nM anti-phoshoSerine antibody [Merck Millipore, cat. #35-001] and 0.4 nM LANCE EU-W1024 labeled anti-mouse IgG antibody [Perkin-Elmer, product no. AD0077, alternatively a Terbium-cryptate-labeled anti-mouse IgG antibody from Cisbio Bioassays can be used]). The stopped reaction mixture was further incubated 1 h at 22° C. in order to allow the formation of complexes between peptides and detection reagents. Subsequently, the amount of product was evaluated by measurement of the resonance energy transfer from the Eu-chelate-antibody complex recognizing the Phosphoserine residue to the streptavidin-XL665 bound to the biotin moiety of the peptide.

[2] = test system: HeLa cell line; assay: Proliferation assay (HeLa cell line); assay type: cell-based; conditions: Homo sapiens, 96 h, read-out: Biological Assay 2: Proliferation assay (HeLa cell line) median IC50
Description: Cultivated tumor cells (cells were ordered from ATCC, except HeLa-MaTu and HeLa-MaTu-ADR, which were ordered from EPO-GmbH, Berlin) were plated at a density of 1000 to 5000 cells/well, depending on the growth rate of the respective cell line, in a 96-well multititer plate in 200 μL of their respective growth medium supplemented 10% fetal calf serum. After 24 hours, the cells of one plate (zero-point plate) were stained with crystal violet (see below), while the medium of the other plates was replaced by fresh culture medium (200 μL), to which the test substances were added in various concentrations (0 μM, as well as in the range of 0.001-10 μM; the final concentration of the solvent dimethyl sulfoxide was 0.5%). The cells were incubated for 4 days in the presence of test substances. Cell proliferation was determined by staining the cells with crystal violet: the cells were fixed by adding 20 μL/measuring point of an 11% glutaric aldehyde solution for 15 minutes at room temperature. After three washing cycles of the fixed cells with water, the plates were dried at room temperature. The cells were stained by adding 100 μL/measuring point of a 0.1% crystal violet solution (pH 3.0). After three washing cycles of the stained cells with water, the plates were dried at room temperature. The dye was dissolved by adding 100 μl/measuring point of a 10% acetic acid solution. Absorbtion was determined by photometry at a wavelength of 595 nm. The change of cell number, in percent, was calculated by normalization of the measured values to the absorbtion values of the zero-point plate (=0%) and the absorbtion of the untreated (0 μm) cells (=100%). The IC50 values were determined by means of a 4 parameter fit.

[3] = 10 μM ATP, 1 μM peptide substrate, TR-FRET, read-out: Biological Assay 1: Bub1 kinase assay median IC50
[4] = 4 days incubation, crystal violet staining

T1 sequence (O43683 704-1085): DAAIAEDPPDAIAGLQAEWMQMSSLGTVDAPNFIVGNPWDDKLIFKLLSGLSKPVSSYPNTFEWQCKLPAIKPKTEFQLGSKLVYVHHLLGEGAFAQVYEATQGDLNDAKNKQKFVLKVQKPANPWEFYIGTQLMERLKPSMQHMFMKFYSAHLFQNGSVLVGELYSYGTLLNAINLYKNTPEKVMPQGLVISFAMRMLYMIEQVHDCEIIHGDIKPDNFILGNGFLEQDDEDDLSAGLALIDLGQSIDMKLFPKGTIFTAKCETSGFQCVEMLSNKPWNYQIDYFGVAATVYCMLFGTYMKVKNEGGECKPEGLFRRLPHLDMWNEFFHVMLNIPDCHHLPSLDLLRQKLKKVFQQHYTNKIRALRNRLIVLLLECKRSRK

| IC50 [1, 3] | IC50 [2] | IC50 [1] | IC50 [2, 4] | SMILES |
| --- | --- | --- | --- | --- |
| 260 nM | 7500 nM |  |  | CCOc1cc(F)c(Cn2nc(-c3nc(N)cc(Nc4ccnc(OC)c4)n3)c(C)c2C2CC2)c(F)c1 [Example 2-1-2, 2-[5-cyclopropyl-1-(4-ethoxy-2,6-difluorobenzyl)-4-methyl-1H-pyrazol-3-yl]-N-(2-methoxypyridin-4-yl)pyrimidine-4,6-diamine] |
|  |  | ≥ 20000 nM |  | CCOc1cc(F)c(Cn2nc(-c3nc(Nc4ccnc(OC)c4)cc(Nc4ccnc(OC)c4)n3)c(C)c2C2CC2)c(F)c1 [Example 2-2-2, 2-[5-cyclopropyl-1-(4-ethoxy-2,6-difluorobenzyl)-4-methyl-1H-pyrazol-3-yl]-N,N′-bis(2-methoxypyridin-4-yl)pyrimidine-4,6-diamine] |
|  |  | 140 nM |  | CCOc1cc(F)c(Cn2nc(-c3nc(Nc4ccncn4)c(N4CCOCC4)c(Nc4ccncn4)n3)c(C)c2C2CC2)c(F)c1 [Example 2-2-7, 2-[5-cyclopropyl-1-(4-ethoxy-2,6-difluorobenzyl)-4-methyl-1H-pyrazol-3-yl]-5-(morpholin-4-yl)-N,N′-di(pyrimidin-4-yl)pyrimidine-4,6-diamine] |
| 340 nM |  |  |  | CCNC(=O)Nc1nc(-c2nn(Cc3c(F)cc(OCC)cc3F)c(C3CC3)c2C)nc(Nc2ccncn2)c1OC [Example 2-1-15, 1-{2-[5-cyclopropyl-1-(4-ethoxy-2,6-difluorobenzyl)-4-methyl-1H-pyrazol-3-yl]-5-methoxy-6-(pyrimidin-4-ylamino)pyrimidin-4-yl}-3-ethylurea] |
| 10 nM | > 10000 nM |  |  | CCOc1cc(F)c(Cn2nc(-c3nc(N)cc(Nc4ccncc4)n3)c(C)c2C2CC2)c(F)c1 [Example 2-1-1, 2-[5-cyclopropyl-1-(4-ethoxy-2,6-difluorobenzyl)-4-methyl-1H-pyrazol-3-yl]-N-(pyridin-4-yl)pyrimidine-4,6-diamine] |
|  |  | 920 nM | 3300 nM | CCOc1cc(F)c(Cn2nc(-c3nc(NC(=O)NC4CCCCC4)c(N4CCOCC4)c(Nc4ccncc4)n3)c(C)c2C2CC2)c(F)c1 [Example 2-1-20, 1-cyclohexyl-3-{2-[5-cyclopropyl-1-(4-ethoxy-2,6-difluorobenzyl)-4-methyl-1H-pyrazol-3-yl]-5-(morpholin-4-yl)-6-(pyridin-4-ylamino)pyrimidin-4-yl}urea] |
| 240 nM |  |  |  | CCOc1cc(F)c(Cn2nc(-c3nc(NC(=O)NC4CCCCC4)cc(Nc4ccncc4)n3)c(C)c2C2CC2)c(F)c1 [Example 2-1-12, 1-cyclohexyl-3-{2-[5-cyclopropyl-1-(4-ethoxy-2,6-difluorobenzyl)-4-methyl-1H-pyrazol-3-yl]-6-(pyridin-4-ylamino)pyrimidin-4-yl}urea] |
| 18 nM | 6000 nM |  |  | CCOc1cc(F)c(Cn2nc(-c3nc(N)cc(Nc4ccnnc4)n3)c(C)c2C2CC2)c(F)c1 [Example 2-1-23, 2-[5-cyclopropyl-1-(4-ethoxy-2,6-difluorobenzyl)-4-methyl-1H-pyrazol-3-yl]-N-(pyridazin-4-yl)pyrimidine-4,6-diamine] |
| 19 nM | 5300 nM |  |  | CCNC(=O)Nc1c(N)nc(-c2nn(Cc3c(F)cc(OCC)cc3F)c(C3CC3)c2C)nc1Nc1ccncc1 [Example 2-1-29, 1-{4-amino-2-[5-cyclopropyl-1-(4-ethoxy-2,6-difluorobenzyl)-4-methyl-1H-pyrazol-3-yl]-6-(pyridin-4-ylamino)pyrimidin-5-yl}-3-ethylurea] |
| 6.3 nM | 3100 nM |  |  | CCOc1cc(F)c(Cn2nc(-c3nc(N)cc(Nc4ccncn4)n3)c(C)c2C2CC2)c(F)c1 [Example 2-1-3, 2-[5-cyclopropyl-1-(4-ethoxy-2,6-difluorobenzyl)-4-methyl-1H-pyrazol-3-yl]-N-(pyrimidin-4-yl)pyrimidine-4,6-diamine] |
| 180 nM | > 10000 nM |  |  | CCOc1cc(F)c(Cn2nc(-c3nc(Nc4ccncn4)c(OC)c(Nc4ccncn4)n3)c(C)c2C2CC2)c(F)c1 [Example 2-2-5, 2-[5-cyclopropyl-1-(4-ethoxy-2,6-difluorobenzyl)-4-methyl-1H-pyrazol-3-yl]-5-methoxy-N,N′-di(pyrimidin-4-yl)pyrimidine-4,6-diamine] |
|  |  | 290 nM | 10000 nM | CCNC(=O)Nc1nc(-c2nn(Cc3c(F)cc(OCC)cc3F)c(C3CC3)c2C)nc(Nc2ccncc2)c1N1CCOCC1 [Example 2-1-18, 1-{2-[5-cyclopropyl-1-(4-ethoxy-2,6-difluorobenzyl)-4-methyl-1H-pyrazol-3-yl]-5-(morpholin-4-yl)-6-(pyridin-4-ylamino)pyrimidin-4-yl}-3-ethylurea] |
|  |  | 7.1 nM | 3800 nM | CCOc1cc(F)c(Cn2nc(-c3nc(N)nc(Nc4ccncc4)n3)c(C)c2C2CC2)c(F)c1 [Example 2-1-8, 6-[5-cyclopropyl-1-(4-ethoxy-2,6-difluorobenzyl)-4-methyl-1H-pyrazol-3-yl]-N-(pyridin-4-yl)-1,3,5-triazine-2,4-diamine] |
|  |  | 9.2 nM | 4200 nM | CCOc1cc(F)c(Cn2nc(-c3nc(N)c(OCCOC)c(Nc4ccncn4)n3)c(C)c2C2CC2)c(F)c1 [Example 2-1-26, 2-[5-cyclopropyl-1-(4-ethoxy-2,6-difluorobenzyl)-4-methyl-1H-pyrazol-3-yl]-5-(2-methoxyethoxy)-N-(pyrimidin-4-yl)pyrimidine-4,6-diamine] |
| 8.8 nM | > 10000 nM |  |  | CCOc1cc(F)c(Cn2nc(-c3nc(N)c(NS(=O)(=O)CC)c(Nc4ccncc4)n3)c(C)c2C2CC2)c(F)c1 [Example 2-1-30, N-{4-amino-2-[5-cyclopropyl-1-(4-ethoxy-2,6-difluorobenzyl)-4-methyl-1H-pyrazol-3-yl]-6-(pyridin-4-ylamino)pyrimidin-5-yl}ethanesulfonamide] |
| 12 nM | 5200 nM |  |  | CCOc1cc(F)c(Cn2nc(-c3nc(N)c(N4CCOCC4)c(Nc4ccncc4)n3)c(C)c2C2CC2)c(F)c1 [Example 2-1-6, 2-[5-cyclopropyl-1-(4-ethoxy-2,6-difluorobenzyl)-4-methyl-1H-pyrazol-3-yl]-5-(morpholin-4-yl)-N-(pyridin-4-yl)pyrimidine-4,6-diamine] |
| 550 nM |  |  |  | CCOc1cc(F)c(Cn2nc(-c3nc(NC(=O)NC4CCCCC4)cc(Nc4ccncn4)n3)c(C)c2C2CC2)c(F)c1 [Example 2-1-13, 1-cyclohexyl-3-{2-[5-cyclopropyl-1-(4-ethoxy-2,6-difluorobenzyl)-4-methyl-1H-pyrazol-3-yl]-6-(pyrimidin-4-ylamino)pyrimidin-4-yl}urea] |
| 34 nM | 10000 nM |  |  | CCOc1cc(F)c(Cn2nc(-c3nc4c(c(Nc5ccncn5)n3)OCC(=O)N4)c(C)c2C2CC2)c(F)c1 [Example 2-1-33, 2-[5-cyclopropyl-1-(4-ethoxy-2,6-difluorobenzyl)-4-methyl-1H-pyrazol-3-yl]-4-(pyrimidin-4-ylamino)-6H-pyrimido[5,4-b][1,4]oxazin-7(8H)-one] |
| 310 nM |  |  |  | CCOc1cc(F)c(Cn2nc(-c3nc(Nc4ccncc4)c(OC)c(Nc4ccncc4)n3)c(C)c2C2CC2)c(F)c1 [Example 2-2-4, 2-[5-cyclopropyl-1-(4-ethoxy-2,6-difluorobenzyl)-4-methyl-1H-pyrazol-3-yl]-5-methoxy-N,N′-di(pyridin-4-yl)pyrimidine-4,6-diamine] |
|  |  | 5500 nM |  | CCOc1cc(F)c(Cn2nc(-c3nc(Nc4ccnnc4)nc(Nc4ccnnc4)n3)c(C)c2C2CC2)c(F)c1 [Example 2-2-11, 6-[5-cyclopropyl-1-(4-ethoxy-2,6-difluorobenzyl)-4-methyl-1H-pyrazol-3-yl]-N,N′-di(pyridazin-4-yl)-1,3,5-triazine-2,4-diamine] |
|  |  | 67 nM |  | CCOc1cc(F)c(Cn2nc(-c3nc(Nc4ccncc4)nc(Nc4ccncc4)n3)c(C)c2C2CC2)c(F)c1 [Example 2-2-8, 6-[5-cyclopropyl-1-(4-ethoxy-2,6-difluorobenzyl)-4-methyl-1H-pyrazol-3-yl]-N,N′-di(pyridin-4-yl)-1,3,5-triazine-2,4-diamine] |
